# Experimental data reported in patent US20070004674A1, “Remedy for diseases associated with immunoglobulin gene translocation” (Kyowa Hakko Kogyo Co. Ltd., priority 2003, published 2007).
# What was measured:
# multiple myeloma cells = settings: mice to which multiple myeloma cells were transplanted; Blood, 100, 392 (2002); cited from earlier work
# Erk2 = assay: Western blot: Erk2 level in KMS-11 cells; assay type: cell-based, human; settings: KF58333 4.0, 20 and 100 nmol/l, 40 hours, FIG. 1, Erk2 is not an Hsp90 client protein
# Experimental: (§1) KMS-11 cells derived from human multiple myeloma [In Vitro Cell. Dev. Biol., 25, 723 (1989)], which were diluted to 10,000 cells/ml with RPMI 1640 medium containing 10% fetal bovine serum (hereinafter referred to as “culturing medium”), were put in plastic culture flasks (125 cm^2, Nunc) in 30 ml portions. KMS-11 cells are reported to be the cells in which a large amount of FGFR3 is expressed as a result of translocation between immunoglobulin gene on 14q32 and FGFR3 gene on 4p16.3 [Blood, 90, 4062 (1997)]. […]
# (§2) To the thus recovered cells was added a cooled lysis buffer (50 mmol/l HEPES NaOH, pH 7.4, 250 mmol/l sodium chloride, 1 mmol/l ethylenediamine tetraacetate, 1% Nonidet P-40, 1 mmol/l dithiothreitol, 1 mmol/l phenylmethylsulfonyl fluoride, 5 μg/ml leupeptin), and the mixture was allowed to stand at 4° C. for 30 minutes for cytolysis, followed by centrifugation at 20000 G for 10 minutes. The concentration of proteins in the supernatant thus obtained was measured, and the samples were adjusted so that the amount of proteins per each lane was the same. […]
# (§3) The separated protein samples were each transferred to a polyvinylidene difluoride membrane (Millipore). […] The band of each protein was detected by FluorImager (Molecular Dynamics) after reaction with ECF reagent (Molecular Dynamics).
# KMS-11 cells [1] = assay: Growth inhibition of KMS-11 cells (XTT); assay type: cell-based; settings: Homo sapiens, 72 hours, calculated from the graph of FIG. 2, read-out: concentration to inhibit cell growth by 50% (GI50 value)
# Experimental: KMS-11 cells diluted to 2×10^5 cells/ml with the culturing medium were pipetted into a 96-well microplate (Nunc) in an amount of 50 μl ([…]) per well. To each well was added 50 μl of a solution prepared by diluting a 10 mmol/l solution of KF58333 in DMSO to 600 nmol/l with the culturing medium and further serially diluting the resulting solution threefold with the culturing medium so as to make the final concentrations of KF58333 of 300, 100, 33.3, 11.1, 3.70 and 1.23 nmol/l, respectively. […] Thereafter, incubation was carried out in a 5% CO2 incubator at 37° C. for 72 hours, and the number of living cells was measured in the following manner. […] Then, the absorbance at 450 nm and 655 nm was measured using a microplate spectrophotometer (Model 550, BIO-RAD). A value (difference in absorbance) was calculated by subtracting the absorbance at 655 nm from that at 450 nm for each well. Since the number of living cells is proportional to the difference in absorbance, the rate (%) of the value of difference in absorbance obtained for cells to which various concentrations of KF58333 were added to that obtained for control cells to which KF58333 was not added when the latter value was designated as 100% was calculated as the rate of the number of living cells to that of control, and the cell growth inhibitory activity of KF58333 was measured.
# FGFR3 = assay: Western blot: intracellular disappearance of FGFR3 in KMS-11 cells; assay type: cell-based, human; settings: KF58333 4.0, 20 and 100 nmol/l, 40 hours, FIG. 1
# Experimental: as §1, §2, §3
# KMS-11 cells [2] = assay: In vivo antitumor effect in KMS-11 cell-transplanted mice; settings: KMS-11 subcutaneous tumor in scid mice, 25 mg/kg intravenously once a day for 5 consecutive days, measured up to day 24, FIG. 3
# Experimental: In vivo antitumor effect of a compound having an inhibitory action on Hsp90 was examined using a human tumor model prepared by transplanting KMS-11 cells to immunodeficient mice as a model of a disease associated with immunoglobulin gene translocations.
# KMS-11 cells were cultured in a 5% CO2 incubator at 37° C. using the culturing medium for propagation. One day before transplantation, 0.3 mg/mouse of anti-asialo GM1 antibody was intraperitoneally administered to 10 […] Fox C.B-17/Icr-scidJcl mice (CLEA JAPAN). One day after the administration of the antibody, the cultured KMS-11 cells (1×10^7 cells/mouse) were subcutaneously transplanted to the mice. Fourteen days after the transplantation, the longer diameter and shorter diameter of the tumor subcutaneously grown were measured with slide calipers, and the tumor volume was calculated according to the following equation: Tumor volume V(mm^3)={longer diameter (mm)×[shorter diameter(mm)]^2}/2
# At the same time, the body weight of each mouse was measured, and the mice were divided into two groups of 5 mice each so that the tumor volume and the body weight are randomized. The day was defined as day 0 of the administration test, and drug administration was started in the following manner. […]
# Raf-1 = assay: Western blot: Raf-1 level in KMS-11 cells; assay type: cell-based, human; settings: KF58333 4.0, 20 and 100 nmol/l, 40 hours, FIG. 1
# Experimental: as §1, §2, §3
# Cdk6 = assay: Western blot: Cdk6 level in KMS-11 cells; assay type: cell-based, human; settings: KF58333 4.0, 20 and 100 nmol/l, 40 hours, FIG. 1
# Experimental: as §1, §2, §3
SMILES,survival time of mice (multiple myeloma cells),intracellular amount of Erk2 (Western blot) (Erk2),GI50 (KMS-11 cells [1]),intracellular amount of FGFR3 (Western blot) (FGFR3),tumor growth (volume ratio V/V0) (KMS-11 cells [2]),intracellular amount of Raf-1 (Western blot) (Raf-1),intracellular amount of Cdk6 (Western blot) (Cdk6)
C=CCNC1=C2C[C@@H](C)C[C@H](OC)[C@H](O)[C@@H](C)/C=C(\C)[C@H](OC(N)=O)[C@@H](OC)/C=C\C=C(/C)C(=O)NC(=CC1=O)C2=O [17-allylamino-17-demethoxy geldanamycin],extended survival time,,,,,,
CC1CC2OC2\C=C/C=C/C(=N\OCCN2CCCC2=O)Cc2c(Cl)c(O)cc(O)c2C(=O)O1 (stereo not shown) [KF58333],,no change,19.8 nM,disappeared,apparent suppression of tumor growth,disappeared,disappeared
